Measured values reported in patent US20120149663A1, “BORONIC ACID COMPOSITIONS AND METHODS RELATED TO CANCER” (GEORGETOWN UNIVERSITY, priority 2009, published 2012).
Read-outs that look alike come from different tables or passages of the source. Blank lines part the entries; values can stand above or below the compound they belong to.

Tests used:
[1] = system: ER+, estrogen-dependent human breast cancer MCF-7 cell line; assay: Cell growth assay (WST-1 assay), MCF-7; format: cell-based; details: for MCF-7 cell growth inhibition (in words): MCF-7, WST-1
Protocol: Results are the mean value of triplicate samples. […] Cell viability was finally determined by adding WST-1 reagent and measuring the optical absorbance at […] and 630 nm as described in “Materials and methods”. […] The IC50 for each cell line was calculated using graph pad prism. Data are expressed as mean (SEM) of triplicate samples. […] The IC50 for each cell line was calculated using graph pad prism. Data are expressed as mean (SEM) of triplicate sample. ER-Positive (MCF-7) human breast carcinoma cell line was used in this study. The human breast cell lines MCF-7 (HTB-22) were provided by the tissue culture core facility at Lombardi Comprehensive Cancer Center, Georgetown University Medical Center. […] Robert Clarke from the Georgetown University Medical Center. […] The effect of cis-4 and trans-4 or resveratrol on cell growth was determined by WST-1 assay. Briefly, cells were seeded into a 96-well plate at 3,500 cells per well in DMEM containing 10% FBS. After overnight incubation, cells were treated with the compounds (1-100 μM) for 48 h and 72 h at 37° C. Control cells were treated with an equal amount of DMSO. After the indicated incubation time, cell viability was measured by WST-1 assay according to the manufacturer's instructions (Roche). […] The water soluble tetrazolium salt of WST-1 is converted into orange formazan by dehydrogenase in the mitochondria of living cells. The formazan absorbance, which correlates to the number of living cells, was recorded at wavelengths of 450 nm and 630 nm using a microplate reader (Ultramark, Microplate Imaging System, Bio-Rad). The GI50 was calculated from the graph of the log of compound concentration versus the fraction of the surviving cells.

[2] = system: MCF-7 cells; assay: Cell cycle analysis by flow cytometry (propidium iodide); format: cell-based, human; details: MCF-7, 30 μM, 16, 24, 48 h
Protocol: FIGS. 10A and 10B show the effect of compounds on cell cycle distribution in MCF-7 breast cancer cell lines. A. […] B. Percentage of DNA distribution of trans-4 in G1 phase was presented in a bar graph. Results are represented as a mean of triplicate samples. The experiment was repeated thrice with identical results. The effect of cis-4, trans-4 or resveratrol on cell cycle progression was analyzed by flow cytometry. Cells were seeded in 6-well plates and treated with 30 μM of compound 1 or 2 at different time intervals (16, 24, 48 h). Cells were trypsinized, centrifuged at 2000 rpm and cell pellets were collected. Pellets were washed with 1×PBS, permeabilized with 70% (v/v) ethanol, resuspended in 1 ml of PBS containing 1 mg/ml RNase and […] propidium iodide, incubated in the dark for 30 min at room temperature, and analysed by a FACSort Flow Cytometer (Becton Dickinson, San jose, CA). The cell cycle distribution was evaluated on DNA plots using the Modfit software (Verity softwarehouse, Topsham, Me.).

[3] = system: MCF-7 cells; assay: Combination with flavopiridol, WST-1 cell viability; format: cell-based, human; details: for Sensitization to flavopiridol (in words): MCF-7; for GI50: Homo sapiens, MCF7
Protocol: A Wst-1 assay was performed to measure the cell viability as mentioned in the methods. GI50 are the average of triplicate samples and the experiment was repeated thrice with identical results. The effect of cis-4 and trans-4 or resveratrol on cell growth was determined by WST-1 assay. Briefly, cells were seeded into a 96-well plate at 3,500 cells per well in DMEM containing 10% FBS. After overnight incubation, cells were treated with the compounds (1-100 μM) for 48 h and 72 h at 37° C. Control cells were treated with an equal amount of DMSO. After the indicated incubation time, cell viability was measured by WST-1 assay according to the manufacturer's instructions (Roche). […] The water soluble tetrazolium salt of WST-1 is converted into orange formazan by dehydrogenase in the mitochondria of living cells. The formazan absorbance, which correlates to the number of living cells, was recorded at wavelengths of 450 nm and 630 nm using a microplate reader (Ultramark, Microplate Imaging System, Bio-Rad). The GI50 was calculated from the graph of the log of compound concentration versus the fraction of the surviving cells.

[4] = system: MCF-7 cells; details: MCF-7, 300 μM, Clin Cancer Res 2002; cited from earlier work
[5] = system: E2-mediated MCF-7 cell growth; assay: DNA content in estrogen mediated MCF-7 cell growth; format: cell-based, human; details: E2 10^−9M constant
Protocol: After 5 days incubation, the DNA content of the treated cells was measured using a DNA fluorescence kit (Bio Rad #170-2480). Results are shown as the mean of triplicate samples±SD. The experiment was repeated twice with identical results. […] Cells were then seeded in 24 well plates at 10000 cells per well in 1 ml of estrogen depleted media. […] Cells were incubated at 37° C. for an additional 4 days. Media were removed and cells were frozen at −78° C. overnight and the DNA content in each well was measured according to the manufacturer's protocol (DNA Quantification Kit, Bi0-Rad). Results are represented as mean of triplicate sample and repeated the experiment with identical results.

[6] = system: cdk4, cdk2, cyclin E, cyclin D1 and pRb in MCF-7 cells; assay: Western blot of G1 cell cycle proteins; format: cell-based, human; details: MCF-7, 24 h and 48 h, immunoblot
Protocol: MCF-7 cells were treated with the indicated concentrations of compound 2 for 24 hours and 48 hours and cell lysates were analyzed by immunoblotting. Protein expression of positive regulators such as cyclin D1, Cdk4, cyclinE, Cdk2 and phospho-Rb were detected by their specific antibodies. Human β-actin was analyzed as a control of gel loading. Twenty-micrograms of lysate was used for each experimental condition.
Western blotting was performed as previously published (J Biol Chem 2004, 279, 38903-38911). In brief, cell pellets were collected at the indicated times after treatment with compounds, suspended in 100 μl, of lysis buffer (50 mM Tris-HCl, 150 mM NaCl, 1 mM EGTA, 1 mM EDTA, 20 mM NaF, […], 0.5% NP-40, 1% Triton X-100, 1 mM PMSF, 5 μg/ml aprotinin, 5 μg/ml leupeptin), vortexed twice and incubated in an ice bath for 30 min Lysates were cleared by centrifugation at 12000 rpm for 15 min at 4° C. and protein was estimated by detergent compatible BCA protein assay kit (Pierce). Equivalent amounts of total proteins were resolved by SDS-PAGE (10%) and transferred to PVDF membranes. Membranes were blocked by 5% non-fat powdered milk in TBST overnight. […]

[7] = Stability compared with resveratrol; format: physicochemical
[8] = system: CL 10.3 cells (MCF-7 MDR, over-expresses the MDR gene); assay: Cell growth assay (WST-1 assay), multidrug resistant CL 10.3; format: cell-based, human; details: for GI50: CL 10.3 Breast (MDR), 72 h, read-out: Cell Survival (WST-1 assay, GI50, 72 h) CL 10.3; for Activity in multidrug resistant cells (in words): CL 10.3 compared with MCF-7; for MDR GI50/non-MDR GI50: CL 10.3 versus MCF-7, 72 h; for P-glycoprotein substrate (in words): inferred from activity in MDR cell line CL 10.3
Protocol: IC50 value (the concentration yielding 50% growth inhibition) was extrapolated from the graph of the log of compound concentration versus the fraction of surviving cells. The 1050 for each cell line was calculated using graph pad prism. Data are expressed as mean (SEM) of triplicate sample. Results are mean value of triplicate samples.
ER-Positive (MCF-7) human breast carcinoma cell line was used in this study. The human breast cell lines MCF-7 (HTB-22) were provided by the tissue culture core facility at Lombardi Comprehensive Cancer Center, Georgetown University Medical Center. MCF-7^MDR (CL 10.3) cells were a gift from Dr. Robert Clarke from the Georgetown University Medical Center. MCF-7, and CL 10.3 cells were maintained in DMEM (Biofluids, Frederick, Md.) supplemented 10% heat inactivated fetal bovine serum (FBS), 2 mM L-glutamine, and 50 μg/mL each of antibiotics, namely penicillin, streptomycin, and neomycin at 37° C. in a humidified incubator containing 5% CO2.
The effect of cis-4 and trans-4 or resveratrol on cell growth was determined by WST-1 assay. Briefly, cells were seeded into a 96-well plate at 3,500 cells per well in DMEM containing 10% FBS. After overnight incubation, cells were treated with the compounds (1-100 μM) for 48 h and 72 h at 37° C. Control cells were treated with an equal amount of DMSO. After the indicated incubation time, cell viability was measured by WST-1 assay according to the manufacturer's instructions (Roche). Briefly, 20 μL of WST-1 solution was added in each well and incubated for 2-4 hours. The water soluble tetrazolium salt of WST-1 is converted into orange formazan by dehydrogenase in the mitochondria of living cells. The formazan absorbance, which correlates to the number of living cells, was recorded at wavelengths of 450 nm and 630 nm using a microplate reader (Ultramark, Microplate Imaging System, Bio-Rad). The GI50 was calculated from the graph of the log of compound concentration versus the fraction of the surviving cells.

[9] = MCF-7, 48 h, read-out: Cell Survival (WST-1 assay, GI50) 48 hours
[10] = MCF-7, 72 h, read-out: Cell Survival (WST-1 assay, GI50) 72 hours

Compound: [(Z)-2-(3,5-dimethoxyphenyl)vinyl]phenylboronic Acid [cis-4]
GI50 [1, 9]: > 100 µM
GI50 [1, 10]: > 100 µM
MCF-7 cell growth inhibition (in words) [1]: does not show any growth inhibition at 100 μM

Compound: Oc1ccc(C=Cc2cc(O)cc(O)c2)cc1 [Resveratrol, reference compound]
Effect on cell cycle distribution (in words) [2]: works at the G2/M1 phase
Sensitization to flavopiridol (in words) [3]: does not sensitize the MCF-7 cells incubated with flavopiridol
Cell cycle arrest by resveratrol in previous studies (in words) [4]: S-phase cell cycle arrest
Effect on E2-mediated MCF-7 cell growth (in words) [5]: antagonizes E2-mediated MCF-7 cell growth

Compound: COc1ccc(/C=C/c2cc(OC)c(OC)c(OC)c2)cc1B(O)O [trans-4, 2-Methoxy-5-[(E)-2-(3,4,5-trimethoxyphenyl)vinyl]boronic acid]
Expression level of G1 cell cycle proteins (in words) ([6]; listed as YK-5-104): decreases the pRb levels
Expression level of G1 cell cycle proteins (in words) ([6]; listed as compound 2): decreases the expression level of cdk4, cdk2, cyclin E, cyclin D1 and pRb
GI50 [1, 9]: 36.6 µM
GI50 [1, 10]: 31.1 ± 0.05 µM
Activity relative to Resveratrol ([1]; breast cancer): 3 fold
Stability compared with Resveratrol (in words) [7]: more stable than Resveratrol
Sensitization to flavopiridol (in words) [3]: modulates the flavopiridol mediated cell viability
Fold increase in growth inhibition compared with trans-4 ([3]; MCF-7, opposite administration: 100 nM flavopiridol 24 hours then trans-4): 7 fold
Fold increase of flavopiridol mediated growth inhibition compared with flavopiridol alone ([3]; MCF-7, trans-4 then flavopiridol): 16.6 fold
GI50 [8]: 49.09 ± 0.001 µM
Activity in multidrug resistant cells (in words) [8]: equipotent in CL 10.3 and MCF-7 cells
Activity in multidrug resistant cells (in words) ([8]; listed as Compound 2): can work on multidrug resistant cell lines
MDR GI50/non-MDR GI50 [8]: 1.57
P-glycoprotein substrate (in words) [8]: likely not a substrate for P-glycoprotein
P-glycoprotein substrate (in words) ([8]; listed as YK-5-104): not a substrate for p-glycoprotein
Effect on E2-mediated MCF-7 cell growth (in words) [5]: does not have any effect on E2-induced cell growth

MDR GI50/non-MDR GI50 [8]: >25,000
Compound: CC(=O)O[C@H]1C(=O)[C@@]2(C)[C@H]([C@H](OC(=O)c3ccccc3)[C@]3(O)C[C@H](OC(=O)[C@H](O)[C@@H](NC(=O)c4ccccc4)c4ccccc4)C(C)=C1C3(C)C)[C@]1(OC(C)=O)CO[C@@H]1C[C@@H]2O [Paclitaxel, reference compound]
MCF-7 cell growth inhibition (in words) [1]: strongly inhibits MCF-7 cell growth
Activity in multidrug resistant cells (in words) [8]: has no effect on CL 10.3 cells
GI50 ([8]; Homo sapiens, MCF7): > 50 µM

GI50 ([3]; MCF-7, 10 μM trans-4 for 24 hours then flavopiridol 48 hours, read-out: GI50, combination of trans-4 with flavopiridol): 0.018 µM
GI50 ([3]; MCF-7, flavopiridol alone, 48 h, read-out: GI50, flavopiridol only): 0.3 µM
Compound: CN1CC[C@H](c2c(O)cc(O)c3c(=O)cc(-c4ccccc4Cl)oc23)[C@H](O)C1 [flavopiridol, reference compound]
